Measured values taken from US20250171434A1, “SEC61 INHIBITORS AND USE THEREOF” (KEZAR LIFE SCIENCES, INC., priority 2022, published 2025).
Like-named read-outs stand apart in the source and are kept apart here.

Tests used:
[1] = system: PD1-ss+10aa/Gaussia Luciferase; experiment: Dox-Induced PD1-ss-Gluc Assay; type: cell-based
Text: Flp-In 293 T-REx™ cells were transfected with pcDNA™5/FRT/TO plasmid inserted with cDNA encoding Gaussia Luciferase fused to the 3′ end of cDNA encoding PD1 signal sequence plus 10 amino acids (N-[…]-C) (SEQ ID NO: 1). Transfected cells were selected for resistance to the selectable markers Hygromycin and Blasticidin to create a stable cell line that contained the PD1-ss+10aa/Gaussia Luciferase cDNA insert whose expression was regulated under the T-REx™ system. The day before assay, cells were trypsinized and plated in 384-well tissue culture plates. The next day, compound dilutions in DMSO/media containing doxycycline were added to the wells and incubated at 37° C., 5% CO2.
(§1) For chemical structures that include one or more stereoisomers, but are illustrated without indicating stereochemistry, the assay data refers to a mixture of stereoisomers.

[2] = system: IL6R-ss+10aa/Gaussia Luciferase; experiment: Dox-induced IL-6R-ss-Gluc Assay; type: cell-based
Text: Flp-In 293 T-REx™ cells were transfected with pcDNATM5/FRT/TO plasmid inserted with cDNA encoding Gaussia Luciferase fused to the 3′ end of cDNA encoding IL6R signal sequence plus 10 amino acids (N-[…]-C). Transfected cells were selected for resistance to the selectable markers Hygromycin and Blasticidin to create a stable cell line that contained the IL6R-ss+10aa/Gaussia Luciferase cDNA insert whose expression was regulated under the T-REx™ system. The day before assay, cells were trypsinized and plated in 384-well tissue culture plates. The next day, compound dilutions in DMSO/media containing doxycycline were added to the wells and incubated at 37° C., 5% CO2.
as §1

[3] = system: IL-2-FL/Gaussia Luciferase; experiment: Dox Inducible IL2-FL-Gluc Assay; type: cell-based
Text: Flp-In 293 T-REx™ cells were transfected with pcDNA™5/FRT/TO plasmid inserted with cDNA encoding Gaussia Luciferase fused to the 3′ end of cDNA encoding full length IL-2 (amino acids 1-153). Transfected cells were selected for resistance to the selectable markers Hygromycin and Blasticidin to create a stable cell line that contained the IL-2-FL/Gaussia Luciferase cDNA insert whose expression was regulated under the T-REx™ system. The day before assay, cells were trypsinized and plated in 384-well tissue culture plates. The next day, compound dilutions in DMSO/media containing doxycycline were added to the wells and incubated at 37° C., 5% CO2.
as §1

CD47(ss + 10)Gluc = experiment: Dox-Induced CD47-ss-Gluc Assay; type: cell-based
[4] = Liver Microsome Stability Assay, mouse; type: in vitro ADME; conditions: mouse liver microsomes 1.0 mg/mL, 1.0 uM compound, 37° C., 1 mM NADPH
Procedure: (§2) Stability of a compound was assessed in the presence of liver microsomes from various sources—mouse, rat, monkey and human liver microsomes. 1.0 uM compound, 0.4% DMSO in 0.1 M Potassium Phosphate with 1.0 mg/mL liver microsomes, were incubated at 37° C. with or without 1 mM NADPH. The samples were quenched at 0, and 30 minutes.

[5] = system: multiple myeloma cell line U266B1; experiment: U266 Cell Viability Assay; type: cell-based; conditions: Homo sapiens
Procedure: (§3) The human multiple myeloma cell line U266B1 was cultured in RPMI 1640 media supplemented with 10% fetal bovine serum, 2 mM Glutamine, and 1× Penicillin/Streptomycin. Cells were plated in 384-well tissue culture plates and treated with compound dilutions in DMSO/media. Plates were incubated at 37° C., 5% CO2 for 48 hours. After 48 hours, Celltiter-Glo® (Promega) was added to each well and luciferase signal was quantified using Tecan Infinite M1000 Pro for cell viability determination.
as §1

[6] = Liver Microsome Stability Assay, monkey; type: in vitro ADME; conditions: monkey liver microsomes 1.0 mg/mL, 1.0 uM compound, 37° C., 1 mM NADPH
Procedure: as §2

[7] = Liver Microsome Stability Assay, rat; type: in vitro ADME; conditions: rat liver microsomes 1.0 mg/mL, 1.0 uM compound, 37° C., 1 mM NADPH
Procedure: as §2

[8] = system: multiple myeloma cell line NCI-H929; experiment: H929 Cell Viability Assay; type: cell-based, human; conditions: for EC50: Homo sapiens
Procedure: as §3, with “NCI-H929” for “U266B1”, “cultured in Advanced RPMI 1640 media (Gibco®) supplemented with 6% fetal bovine serum, 2 mM Glutamine, and 1× Penicillin/Streptomycin. On the day of assay, cells were resuspended” for “cultured”, “Penicillin/Streptomycin and” for “Penicillin/Streptomycin. Cells were”
as §1

[9] = Liver Microsome Stability Assay, human; type: in vitro ADME; conditions: human liver microsomes 1.0 mg/mL, 1.0 uM compound, 37° C., 1 mM NADPH
Procedure: as §2

[10] = Flp-In 293 T-REx cells, 24 hours with doxycycline; Table 1; read-out: 24 hr Dox Inducible PD1ssGluc 293FRT/TO: Mean IC50
[11] = Flp-In 293 T-REx cells, 24 hours with doxycycline; Table 1; read-out: 24hr Dox Inducible IL6R(ss + 10)Gluc 293FRT/TO: Mean IC50
[12] = ratio of IC50s IL6R/PD1; Table 1
[13] = Flp-In 293 T-REx cells, 24 hours with doxycycline; Table 1; read-out: 24 hr Dox Inducible IL2FLGluc 293FRT/TO: Mean IC50
[14] = ratio of IC50s IL2/PD1; Table 1
[15] = Flp-In 293 T-REx cells, 24 hours with doxycycline; Table 1; read-out: 24 hr Dox Inducible CD47(ss + 10)Gluc 293FRT/TO: Mean IC50
[16] = U-266, U266B1 cells, 48 hours, Celltiter-Glo, read-out: 48 hr U266 Viability Celltiter-Glo: Mean EC50
[17] = NCI-H929 cells, 48 hours, Celltiter-Glo, read-out: 48 hr H929 Viability Celltiter-Glo: Mean EC50

Structure (SMILES): O=C(Nc1nc(/C=C/c2ncoc2C(F)(F)F)cs1)c1cc(Cl)cn1Cc1ccnc(F)c1 [Compound A8, (E)-4-chloro-1-((2-fluoropyridin-4-yl)methyl)-N-(4-(2-(5-(trifluoromethyl)oxazol-4-yl)vinyl)thiazol-2-yl)-1H-pyrrole-2-carboxamide]
- IC50 [1, 10]: 129 nM
- IC50 [2, 11]: 1960 nM
- 24hr Dox Inducible IL6R(ss + 10)Gluc 293FRT/TO: IL6R/PD1 [2, 12]: 15
- IC50 [3, 13]: 1.82 µM
- 24 hr Dox Inducible IL2FLGluc 293FRT/TO: IL2/PD1 [3, 14]: 14
- IC50 (CD47(ss + 10)Gluc; [15]): 1740 nM
- Liver Microsome Stability (Multiple Species): Mouse - % Remaining after 30 min w/ NADPH (%) [4]: 86%
- EC50 [5, 16]: 12800 nM
- Liver Microsome Stability (Multiple Species): Monkey - % Remaining after 30 min w/ NADPH (%) [6]: 68%
- Liver Microsome Stability (Multiple Species): Rat - % Remaining after 30 min w/ NADPH (%) [7]: 47%
- EC50 [8, 17]: 7440 nM
- Liver Microsome Stability (Multiple Species): Human - % Remaining after 30 min w/ NADPH (%) [9]: 72%

Structure (SMILES): CCOc1cc(C(=O)Nc2nc(/C=C/c3ncn(C4CC4)c3Cl)cs2)n(Cc2ccnc(F)c2)c1 [Compound A17, (E)-N-(4-(2-(5-chloro-1-cyclopropyl-1H-imidazol-4-yl)vinyl)thiazol-2-yl)-4-ethoxy-1-((2-fluoropyridin-4-yl)methyl)-1H-pyrrole-2-carboxamide]
- IC50 [1, 10]: 9 nM
- IC50 [2, 11]: 2100 nM
- 24hr Dox Inducible IL6R(ss + 10)Gluc 293FRT/TO: IL6R/PD1 [2, 12]: 240
- IC50 [3, 13]: 3.02 µM
- 24 hr Dox Inducible IL2FLGluc 293FRT/TO: IL2/PD1 [3, 14]: 340
- IC50 (CD47(ss + 10)Gluc; [15]): 2740 nM
- Liver Microsome Stability (Multiple Species): Mouse - % Remaining after 30 min w/ NADPH (%) [4]: 72%
- EC50 [5, 16]: > 25000 nM
- Liver Microsome Stability (Multiple Species): Monkey - % Remaining after 30 min w/ NADPH (%) [6]: 17%
- Liver Microsome Stability (Multiple Species): Rat - % Remaining after 30 min w/ NADPH (%) [7]: 2%
- 48 hr H929 Viability Celltiter-Glo: Mean EC50 (nM) ([8]; NCI-H929 cells, 48 hours, Celltiter-Glo): I.A
- Liver Microsome Stability (Multiple Species): Human - % Remaining after 30 min w/ NADPH (%) [9]: 26%

Structure (SMILES): O=C(Nc1nc(/C=C/c2ncn(C3CC3)c2Cl)cs1)c1cc(SC(F)F)cn1Cc1ccnc(F)c1 [Compound A32, (E)-N-(4-(2-(5-chloro-1-cyclopropyl-1H-imidazol-4-yl)vinyl)thiazol-2-yl)-4-((difluoromethyl)thio)-1-((2-fluoropyridin-4-yl)methyl)-1H-pyrrole-2-carboxamide]
- IC50 [1, 10]: 10 nM
- IC50 [2, 11]: 1940 nM
- 24hr Dox Inducible IL6R(ss + 10)Gluc 293FRT/TO: IL6R/PD1 [2, 12]: 187
- 24 hr Dox Inducible IL2FLGluc 293FRT/TO: Mean IC50 (nM) ([3]; Flp-In 293 T-REx cells, 24 hours with doxycycline; Table 1): I.A
- 24 hr Dox Inducible IL2FLGluc 293FRT/TO: IL2/PD1 [3, 14]: >2400
- IC50 (CD47(ss + 10)Gluc; [15]): 3060 nM
- Liver Microsome Stability (Multiple Species): Mouse - % Remaining after 30 min w/ NADPH (%) [4]: 27%
- EC50 [5, 16]: > 25000 nM
- Liver Microsome Stability (Multiple Species): Monkey - % Remaining after 30 min w/ NADPH (%) [6]: 2%
- Liver Microsome Stability (Multiple Species): Rat - % Remaining after 30 min w/ NADPH (%) [7]: 5%
- EC50 [8, 17]: > 25000 nM
- Liver Microsome Stability (Multiple Species): Human - % Remaining after 30 min w/ NADPH (%) [9]: 1%

Structure (SMILES): O=C(Nc1nc(/C=C/C2CCOC2)cs1)c1cccn1Cc1ccnc(F)c1 (stereo not shown) [Compound B22, (E)-1-((2-fluoropyridin-4-yl)methyl)-N-(4-(2-(tetrahydrofuran-3-yl)vinyl)thiazol-2-yl)-1H-pyrrole-2-carboxamide]
- IC50 [1, 10]: > 25000 nM
- IC50 [2, 11]: > 25000 nM
- IC50 [3, 13]: > 25 µM
- IC50 (CD47(ss + 10)Gluc; [15]): > 25000 nM
- Liver Microsome Stability (Multiple Species): Mouse - % Remaining after 30 min w/ NADPH (%) [4]: 41%
- EC50 [5, 16]: > 25000 nM
- Liver Microsome Stability (Multiple Species): Monkey - % Remaining after 30 min w/ NADPH (%) [6]: <1%
- Liver Microsome Stability (Multiple Species): Rat - % Remaining after 30 min w/ NADPH (%) [7]: 1%
- EC50 [8, 17]: > 25000 nM
- Liver Microsome Stability (Multiple Species): Human - % Remaining after 30 min w/ NADPH (%) [9]: 9%

Structure (SMILES): CC(C(F)F)n1cnc(/C=C/c2csc(NC(=O)c3cc(Cl)cn3Cc3ccnc(F)c3)n2)c1 (stereo not shown) [Compound A4, (E)-4-chloro-N-(4-(2-(1-(1,1-difluoropropan-2-yl)-1H-imidazol-4-yl)vinyl)thiazol-2-yl)-1-((2-fluoropyridin-4-yl)methyl)-1H-pyrrole-2-carboxamide]
- IC50 ([1]; read-out: 24 hr Dox Inducible PD1ssGluc 293FRT/TO: Mean IC50; Flp-In 293 T-REx cells, 24 hours with doxycycline; Table 1): 604 nM
- 24hr Dox Inducible IL6R(ss + 10)Gluc 293FRT/TO: IL6R/PD1 [2, 12]: 11
- IC50 ([2]; read-out: 24hr Dox Inducible IL6R(ss + 10)Gluc 293FRT/TO: Mean IC50; Flp-In 293 T-REx cells, 24 hours with doxycycline; Table 1): 6770 nM
- 24 hr Dox Inducible IL2FLGluc 293FRT/TO: IL2/PD1 [3, 14]: 21
- IC50 ([3]; read-out: 24 hr Dox Inducible IL2FLGluc 293FRT/TO: Mean IC50; Flp-In 293 T-REx cells, 24 hours with doxycycline; Table 1): 12.7 µM
- IC50 (CD47(ss + 10)Gluc; read-out: 24 hr Dox Inducible CD47(ss + 10)Gluc 293FRT/TO: Mean IC50; Flp-In 293 T-REx cells, 24 hours with doxycycline; Table 1): 6230 nM
- Liver Microsome Stability (Multiple Species): Mouse - % Remaining after 30 min w/ NADPH (%) [4]: 80%
- EC50 ([5]; U-266, 48 h, read-out: 48 hr U266 Viability Celltiter-Glo: Mean EC50 (nM)): > 25000 nM
- Liver Microsome Stability (Multiple Species): Monkey - % Remaining after 30 min w/ NADPH (%) [6]: 4%
- Liver Microsome Stability (Multiple Species): Rat - % Remaining after 30 min w/ NADPH (%) [7]: 73%
- EC50 ([8]; NCI-H929, 48 h, read-out: 48 hr H929 Viability Celltiter-Glo: Mean EC50 (nM)): > 23300 nM
- Liver Microsome Stability (Multiple Species): Human - % Remaining after 30 min w/ NADPH (%) [9]: 3%

Structure (SMILES): N#Cc1c(/C=C/c2csc(NC(=O)c3cc(Cl)cn3Cc3ccnc(F)c3)n2)ncn1C1CC1 [Compound A28, (E)-4-chloro-N-(4-(2-(5-cyano-1-cyclopropyl-1H-imidazol-4-yl)vinyl)thiazol-2-yl)-1-((2-fluoropyridin-4-yl)methyl)-1H-pyrrole-2-carboxamide]
- IC50 [1, 10]: 22 nM
- IC50 [2, 11]: 1490 nM
- 24hr Dox Inducible IL6R(ss + 10)Gluc 293FRT/TO: IL6R/PD1 [2, 12]: 68
- IC50 [3, 13]: 1.51 µM
- 24 hr Dox Inducible IL2FLGluc 293FRT/TO: IL2/PD1 [3, 14]: 69.0
- IC50 (CD47(ss + 10)Gluc; [15]): 1400 nM
- Liver Microsome Stability (Multiple Species): Mouse - % Remaining after 30 min w/ NADPH (%) [4]: 67%
- EC50 [5, 16]: 15500 nM
- Liver Microsome Stability (Multiple Species): Monkey - % Remaining after 30 min w/ NADPH (%) [6]: 9%
- Liver Microsome Stability (Multiple Species): Rat - % Remaining after 30 min w/ NADPH (%) [7]: 2%
- EC50 [8, 17]: > 25000 nM
- Liver Microsome Stability (Multiple Species): Human - % Remaining after 30 min w/ NADPH (%) [9]: 22%
